Tests used:
[1] = biological target: T1, EP300, CRBN and CBP in Kelly cell lysates (Homo sapiens, UniProt Q09472+Q96SW2); test: Biotin-JQAD1 pulldown from Kelly cell lysates (streptavidin purification, western blotting); type: binding; conditions: Kelly cell lysates co-treated with excess pomalidomide
T1 construct: added to 500 μg of whole Kelly cell lysate; endogenous in cells; host or cells: Kelly neuroblastoma cells (whole cell lysate)
Protocol: Biotin-JQAD1, synthesized below, was added to 500 μg of whole Kelly cell lysate prepared in immunoprecipitation (IP) lysis buffer (Pierce™ Biotechnology), and incubated for 16 h at 4° C. with end-over-end mixing. One hundred μL of high-capacity streptavidin agarose resin (Pierce™ Biotechnology) was packed into a 1.5 mL Eppendorf tube®, washed three times with cold PBS, prior to addition of cell lysate. Lysate was incubated at room temperature for 10 minutes prior to centrifugation and washing, followed by elution in NuPAGE™ LDS sample buffer with reducing agent (Thermo-Fisher Scientific). Samples were processed by sodium dodecyl sulphate-polyacrylamide gel electrophoresis (SDS-PAGE) as above and blotted using anti-EP300, anti-CRBN, or anti-CBP antibodies.

EP300 = biological target: T2, EP300 (Homo sapiens, UniProt Q09472); test: Immunohistochemistry of EP300 in Kelly cell xenografts; type: in vivo; conditions: 40 mg/Kg once daily
T2 construct: Cells growing in culture were lysed for whole cell lysates; endogenous in cells; host or cells: Kelly, NGP, SIMA, BE2C neuroblastoma cells; Kelly xenografts in NSG mice
Protocol: Separately, eight animals were xenografted as described above, and treated with vehicle (n=4) or JQAD1 (n=4) at 40 mg/kg IP daily for 14 days. These animals were sacrificed at day 14, following which tumor was extracted, and divided for immunohistochemical analysis or analysis of RNA expression by RNA sequencing (RNA-seq). Immunohistochemistry was performed on the Leica® Bond™ III automated staining platform. Antibody EP300 from Cell Signaling Technology®, catalog number 86377, clone D8Z4E, was run at 1:50 dilution using the Leica® Biosystems Refine Detection Kit with citrate antigen retrieval. Antibody KAT3A/CBP (catalog number ab2832, polyclonal, Abcam) was run at 1:200 using the Leica® Biosystems Refine Detection Kit with ethylenediaminetetraacetic acid (EDTA) antigen retrieval.

[2] = tested on: pro- and anti-apoptotic mRNA transcripts; test: ERCC spike-in RNA-seq of treated Kelly cells; type: cell-based, human; conditions: 500 nM, 24 h
Protocol: For in vitro analyses, total RNA was extracted from control […] or JQAD1 treated Kelly cells using TRIzolTM reagent (Ambion). Prior to extraction, exogenous spike-in of synthetic External RNA Control Consortium (ERCC) RNA controls were added based on cell number (Ambion). Samples were treated with RNAse-free DNAse I and spin purified using the Qiagen® RNeasy Kit (Qiagen®). Purified RNA samples were subjected to library construction with poly-adenylation preparation and sequencing using the Illumina NextSeq® 500 (paired end, 75bp reads). RNA-seq reads were aligned to a reference index containing the sequences of the hg19 revision of the human reference genome and the ERCC spike-in probes using hisat 2.1.0. Expression was quantified using sorted BAMs, a gene reference built using ERCC sizes and RefSeq genes downloaded Jul. 15, 2017, and htseq-count with parameters -I gene_id- stranded=reverse -f bam -m intersection-strict. Read counts were converted to transcripts per million (TPM) and used for cell number-normalization. The expression of all RefSeq genes and ERCC probes was floored at 0.01 and a pseudocount of 0.1 was added to all entries. Values were normalized by equilibrating the expression of the ERCC probes among experiments using normalize.loess from the affy R package. The ERCC-normalized expression of each gene after 24 h of either […] or JQAD1 treatment was compared against its expression in dimethyl sulfoxide (DMSO) treated samples to create two-fold changes.

557 cancer cell lines = test: PRISM pooled barcoded 5-day cell viability screen; type: cell-based, human
Protocol: PRISM barcoded pooled screening was performed using JQAD1 in 578 barcoded cell lines as described in Corsello et al. Nat. Med. 23:405-8 (2017) and Corsello et al. Nat Cancer 1:235-48 (2020). Some cell lines included in the screen were genetically engineered to express exogenous genes, and these cell lines were removed to yield 557 cell lines. Briefly, cells in pools of 20-25 were thawed and plated into 384-well plates (1250 cells/well for adherent cell pools, 2000 cells/well for suspension or mixed suspension/adherent cell pools) containing compound (top concentration: 10 μM, 8-point, threefold dilution). All conditions were tested in triplicate. Cells were lysed after 5 days of treatment and mRNA-based Luminex® detection of barcode abundance from lysates was carried out as described in Corsello et al. Cancer 1:235-48 (2020). Luminex median fluorescence intensity (MFI) data was input to a standardized R pipeline to generate viability estimates relative to vehicle treatment for each cell line and treatment condition, and to fit dose-response curves from viability data.

CBP = biological target: T3, CBP (Homo sapiens, UniProt Q92793); test: Western blotting of CBP in treated NB cells; type: cell-based
T3 construct: Cells growing in culture were lysed for whole cell lysates; endogenous in cells; host or cells: Kelly, NGP, SIMA, BE2C neuroblastoma cells; Kelly xenografts in NSG mice
Protocol: Cells growing in culture were lysed for whole cell lysates as described in Durbin et al. Nat. Genet. 50:1240-1246 (2018) and Wang et al. Nat. Commun. 10:5622 (2019). Nuclear lysates were prepared using the NE-PER® nuclear lysate kit (Thermo Scientific™) according to the manufacturer's protocol. Chromatin lysates were prepared with the total histone extraction kit (Epigentek). Briefly, equivalent amounts of protein were resolved by western blotting using 4-12% Bis-Tris NuPAGE™ gels (Thermo-Fisher Scientific) prior to transfer, and immunoblotting using primary antibodies to: MYCN (1:1000, Cell Signaling Technology®), H3K27ac (1:1000, Abcam), total H3 (1:1000, Cell Signaling Technology®), EP300 (1:1000, Abcam), CBP (1:500, Cell Signaling Technology®), Cas9 (1:1000, Cell Signaling Technology®), cleaved-PARP1 (1:1000, Cell Signaling Technology), cleaved Caspase-3 (1:1000, Cell Signaling Technology®), β-actin (1:1000, Cell Signaling Technology®), GATA3 (1:1000, EMD Millipore™), TFAP2β (1:1000, Cell Signaling Technology®), Vinculin (1:1000, EMD Millipore™), CRBN (1:1000, Cell Signaling Technology®), HAND2 (1:1000, Santa Cruz Biotechnology). Secondary antibodies were horseradish peroxidase (HRP)-conjugated anti-rabbit or anti-mouse (1:5000, Santa Cruz Biotechnology), incubated prior to exposure to enhanced chemiluminescence reagents (GE, Amersham). For immunoprecipitation, equal amounts of protein were diluted in buffer C as described in Mansour et al. Science 346:1373-1377 (2014) and incubated with antibodies covalently conjugated to Dynabeads™ M-270 beads (Thermo-Fisher Scientific) overnight according to the manufacturer's directions. Antibodies used included: H3K27ac, EP300 (Abcam), CBP, TFAP2β (Cell Signaling Technology®), rabbit immunoglobulin G (IgG) (Santa Cruz Biotechnology®). Immunoprecipitated protein was isolated as per the manufacturer's directions and subjected to western blotting, as described above, or mass spectrometry.

T3 sequence (Q92793 whole entry): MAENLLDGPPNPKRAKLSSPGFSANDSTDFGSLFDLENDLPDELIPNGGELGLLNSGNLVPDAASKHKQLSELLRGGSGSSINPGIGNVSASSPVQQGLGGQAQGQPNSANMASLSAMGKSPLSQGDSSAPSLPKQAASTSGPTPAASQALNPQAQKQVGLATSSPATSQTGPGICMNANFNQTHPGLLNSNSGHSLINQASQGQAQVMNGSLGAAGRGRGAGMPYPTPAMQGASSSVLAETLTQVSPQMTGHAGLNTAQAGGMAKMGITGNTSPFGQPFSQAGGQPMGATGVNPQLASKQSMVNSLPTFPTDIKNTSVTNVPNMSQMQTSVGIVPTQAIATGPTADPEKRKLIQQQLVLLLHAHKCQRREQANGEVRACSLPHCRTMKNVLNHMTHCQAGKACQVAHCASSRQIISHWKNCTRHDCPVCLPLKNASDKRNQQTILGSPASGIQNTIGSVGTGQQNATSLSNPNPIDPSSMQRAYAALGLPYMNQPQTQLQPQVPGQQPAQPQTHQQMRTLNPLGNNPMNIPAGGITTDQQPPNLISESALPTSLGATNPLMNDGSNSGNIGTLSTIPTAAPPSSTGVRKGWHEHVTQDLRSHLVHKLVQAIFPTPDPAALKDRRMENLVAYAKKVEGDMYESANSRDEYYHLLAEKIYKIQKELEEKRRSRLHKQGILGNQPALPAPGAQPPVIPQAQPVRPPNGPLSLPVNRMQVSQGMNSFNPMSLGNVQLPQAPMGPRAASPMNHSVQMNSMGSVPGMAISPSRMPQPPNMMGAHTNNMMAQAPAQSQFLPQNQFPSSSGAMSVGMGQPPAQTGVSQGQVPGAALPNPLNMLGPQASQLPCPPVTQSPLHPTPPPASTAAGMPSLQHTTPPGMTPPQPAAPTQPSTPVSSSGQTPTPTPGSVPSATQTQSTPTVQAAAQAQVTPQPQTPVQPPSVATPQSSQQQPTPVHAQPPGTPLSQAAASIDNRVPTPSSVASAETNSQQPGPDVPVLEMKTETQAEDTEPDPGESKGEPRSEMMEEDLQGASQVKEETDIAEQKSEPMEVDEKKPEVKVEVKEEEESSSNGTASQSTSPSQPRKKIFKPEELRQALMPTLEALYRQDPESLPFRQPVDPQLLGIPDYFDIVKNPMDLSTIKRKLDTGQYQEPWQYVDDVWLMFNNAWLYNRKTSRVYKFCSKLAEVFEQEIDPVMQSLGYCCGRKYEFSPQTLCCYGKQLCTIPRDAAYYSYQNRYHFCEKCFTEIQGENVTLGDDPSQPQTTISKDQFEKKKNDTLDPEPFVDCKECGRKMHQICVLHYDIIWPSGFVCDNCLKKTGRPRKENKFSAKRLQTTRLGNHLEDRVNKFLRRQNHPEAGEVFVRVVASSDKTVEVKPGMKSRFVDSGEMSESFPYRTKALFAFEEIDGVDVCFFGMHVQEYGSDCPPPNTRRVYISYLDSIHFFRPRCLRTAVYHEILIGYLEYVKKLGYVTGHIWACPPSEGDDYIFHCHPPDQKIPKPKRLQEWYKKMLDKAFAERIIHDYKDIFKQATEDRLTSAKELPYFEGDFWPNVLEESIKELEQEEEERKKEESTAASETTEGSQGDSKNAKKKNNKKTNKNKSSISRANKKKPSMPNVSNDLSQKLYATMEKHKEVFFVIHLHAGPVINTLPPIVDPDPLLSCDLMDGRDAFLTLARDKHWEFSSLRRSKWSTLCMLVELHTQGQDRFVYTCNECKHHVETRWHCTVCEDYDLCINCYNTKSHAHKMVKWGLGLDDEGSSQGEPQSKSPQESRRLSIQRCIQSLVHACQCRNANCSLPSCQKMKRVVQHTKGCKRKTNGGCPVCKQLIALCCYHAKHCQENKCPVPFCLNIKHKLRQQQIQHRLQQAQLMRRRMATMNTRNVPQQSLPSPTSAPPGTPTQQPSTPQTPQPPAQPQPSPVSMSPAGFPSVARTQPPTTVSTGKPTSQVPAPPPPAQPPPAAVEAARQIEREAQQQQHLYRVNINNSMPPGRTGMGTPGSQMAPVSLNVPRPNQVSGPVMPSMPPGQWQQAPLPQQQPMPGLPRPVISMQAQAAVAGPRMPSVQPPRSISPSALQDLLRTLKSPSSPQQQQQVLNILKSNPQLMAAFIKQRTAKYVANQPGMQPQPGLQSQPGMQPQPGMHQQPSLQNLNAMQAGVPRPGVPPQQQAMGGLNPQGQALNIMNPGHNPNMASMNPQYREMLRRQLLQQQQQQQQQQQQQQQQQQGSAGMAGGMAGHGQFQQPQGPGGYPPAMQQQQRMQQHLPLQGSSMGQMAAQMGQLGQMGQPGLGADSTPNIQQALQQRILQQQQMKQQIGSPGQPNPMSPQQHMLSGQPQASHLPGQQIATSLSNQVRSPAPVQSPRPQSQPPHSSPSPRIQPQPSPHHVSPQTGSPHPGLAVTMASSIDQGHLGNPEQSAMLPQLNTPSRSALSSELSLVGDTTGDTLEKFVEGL
T2 sequence (Q09472 whole entry): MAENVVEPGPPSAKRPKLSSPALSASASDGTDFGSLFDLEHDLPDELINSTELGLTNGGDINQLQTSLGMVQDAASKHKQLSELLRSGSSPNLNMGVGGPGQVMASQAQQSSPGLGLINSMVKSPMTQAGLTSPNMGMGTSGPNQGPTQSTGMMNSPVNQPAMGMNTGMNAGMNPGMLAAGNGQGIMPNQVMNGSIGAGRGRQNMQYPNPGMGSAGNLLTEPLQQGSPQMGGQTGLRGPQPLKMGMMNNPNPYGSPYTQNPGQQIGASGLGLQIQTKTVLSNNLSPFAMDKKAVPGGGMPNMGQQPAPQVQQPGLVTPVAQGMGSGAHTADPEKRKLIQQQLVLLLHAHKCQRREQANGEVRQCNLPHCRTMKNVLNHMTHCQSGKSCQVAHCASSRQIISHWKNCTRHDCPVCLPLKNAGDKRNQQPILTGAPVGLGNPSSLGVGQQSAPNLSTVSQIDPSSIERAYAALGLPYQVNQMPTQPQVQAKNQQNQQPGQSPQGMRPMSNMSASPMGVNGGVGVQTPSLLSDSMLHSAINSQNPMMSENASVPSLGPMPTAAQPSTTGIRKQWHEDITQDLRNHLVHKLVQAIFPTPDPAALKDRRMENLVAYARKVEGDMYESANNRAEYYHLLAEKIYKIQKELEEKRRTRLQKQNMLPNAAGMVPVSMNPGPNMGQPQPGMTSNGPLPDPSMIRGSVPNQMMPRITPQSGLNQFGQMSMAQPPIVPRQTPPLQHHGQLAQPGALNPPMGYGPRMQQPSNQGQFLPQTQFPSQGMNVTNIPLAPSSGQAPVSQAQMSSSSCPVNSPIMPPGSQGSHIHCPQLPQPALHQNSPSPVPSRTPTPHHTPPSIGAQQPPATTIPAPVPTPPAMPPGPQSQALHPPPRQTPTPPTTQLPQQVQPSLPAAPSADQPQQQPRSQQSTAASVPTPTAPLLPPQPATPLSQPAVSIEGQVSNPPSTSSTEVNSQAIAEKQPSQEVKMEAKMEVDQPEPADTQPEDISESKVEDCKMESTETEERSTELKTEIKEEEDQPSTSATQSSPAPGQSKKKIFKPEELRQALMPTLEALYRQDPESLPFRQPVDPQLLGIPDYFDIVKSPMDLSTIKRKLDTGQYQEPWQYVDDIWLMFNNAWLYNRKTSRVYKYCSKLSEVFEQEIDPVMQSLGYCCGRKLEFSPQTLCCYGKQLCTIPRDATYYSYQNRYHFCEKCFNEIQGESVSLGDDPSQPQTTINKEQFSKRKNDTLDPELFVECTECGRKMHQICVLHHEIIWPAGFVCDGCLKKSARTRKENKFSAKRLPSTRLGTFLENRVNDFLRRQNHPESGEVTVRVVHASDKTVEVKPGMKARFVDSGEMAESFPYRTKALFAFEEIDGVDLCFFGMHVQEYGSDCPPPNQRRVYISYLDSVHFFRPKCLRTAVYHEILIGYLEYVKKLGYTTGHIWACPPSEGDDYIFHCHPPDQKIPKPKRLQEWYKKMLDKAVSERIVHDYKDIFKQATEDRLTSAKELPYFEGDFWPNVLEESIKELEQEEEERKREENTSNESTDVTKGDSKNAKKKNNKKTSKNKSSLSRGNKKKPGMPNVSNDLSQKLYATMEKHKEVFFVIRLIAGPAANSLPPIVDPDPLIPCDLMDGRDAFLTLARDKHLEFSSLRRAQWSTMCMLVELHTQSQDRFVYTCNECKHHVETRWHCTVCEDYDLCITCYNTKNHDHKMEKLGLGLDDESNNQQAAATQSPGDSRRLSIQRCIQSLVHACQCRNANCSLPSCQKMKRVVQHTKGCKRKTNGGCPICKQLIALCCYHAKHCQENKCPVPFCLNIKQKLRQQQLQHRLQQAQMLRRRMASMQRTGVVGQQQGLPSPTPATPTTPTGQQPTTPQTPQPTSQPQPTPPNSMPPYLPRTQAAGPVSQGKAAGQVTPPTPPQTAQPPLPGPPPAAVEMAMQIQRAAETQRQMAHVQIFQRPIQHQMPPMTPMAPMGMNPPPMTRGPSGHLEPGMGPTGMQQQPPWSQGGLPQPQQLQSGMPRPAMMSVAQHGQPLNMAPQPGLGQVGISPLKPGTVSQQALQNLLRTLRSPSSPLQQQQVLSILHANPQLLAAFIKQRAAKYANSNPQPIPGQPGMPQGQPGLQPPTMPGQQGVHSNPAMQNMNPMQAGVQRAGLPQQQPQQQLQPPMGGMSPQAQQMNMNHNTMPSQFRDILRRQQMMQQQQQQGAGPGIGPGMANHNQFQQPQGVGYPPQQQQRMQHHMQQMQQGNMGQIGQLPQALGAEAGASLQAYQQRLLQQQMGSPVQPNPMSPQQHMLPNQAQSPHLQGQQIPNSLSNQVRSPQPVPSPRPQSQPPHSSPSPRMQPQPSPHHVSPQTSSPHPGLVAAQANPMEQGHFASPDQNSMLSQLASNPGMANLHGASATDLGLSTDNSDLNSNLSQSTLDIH

## C[C@H](N(Cc1ccc(F)cc1)C(=O)CN1C(=O)O[C@@]2(CCc3cc(NC(=O)CCCCCCCCCCCNc4ccc5c(c4)C(=O)N(C4CCC(=O)NC4=O)C5=O)ccc32)C1=O)C(F)(F)F (stereo partly drawn) [JQAD1, 12-((2-(2,6-dioxopiperidin-3-yl)-1,3-dioxoisoindolin-5-yl)amino)-N-((R)-3′-(2-((4-fluorobenzyl)((S)-1,1,1-trifluoropropan-2-yl)amino)-2-oxoethyl)-2′,4′-dioxo-2,3-dihydrospiro[indene-1,5′-oxazolidin]-5-yl)dodecanamide]
[1]
  effect of excess pomalidomide on the interaction: partial loss of the interaction between JQAD1, CRBN, and EP300
EP300
  EP300 immunostaining of tumors: loss of EP300 immunostaining compared with vehicle control tumors
[2]
  transcript levels of BIM, BID, PUMA, BAX, BCL2 and MCL1: upregulation
[2]; JQAD1 versus A485
  gene set enrichment analysis, hallmark gene sets: enrichment of the apoptosis hallmark gene set
557 cancer cell lines; 5 days, 557 cancer cell lines
  antineoplastic activity: antineoplastic activity across multiple tumor lineages
557 cancer cell lines; 5 days, top concentration 10 μM, some example cell lines within the majority of tumor lineages
  area under the curve (AUC) of the dose-response in growth-inhibited cell lines: < 0.85
557 cancer cell lines; CRBN expression from CCLE
  relation of CRBN expression to AUC of the dose-response: higher expression levels of CRBN were correlated with higher JQAD1-mediated antineoplastic activity
CBP; Kelly cells, 24 h
  CBP expression levels: neither compound had significant effects on expression levels of CBP
CBP; Kelly, NGP and SIMA cells, 24 h
  CBP detection at 24 h: could still be detected
CBP; Kelly, NGP and SIMA cells, extended treatment
  CBP expression with extended treatment: loss of CBP expression was observed

— patent publication US20240156800A1, “EP300 DEGRADER AND USES THEREOF IN NEUROBLASTOMA” (DANA-FARBER CANCER INSTITUTE, INC., priority 2021, published 2024)
